These are literature values, as cited in patent publication US20030216871A1, “Calculating a characteristic property of a molecule by correlation analysis” (priority 2001, published 2003).

The test system of one data set is human tumor cells in culture. Conditions: C is average IC50 from assays, values from S. P. Gupta, Chem. Review 94, 1519 (1994); cited from earlier work.
Take `COC12C(COC(N)=O)C3=C(C(=O)C(C)=C(OCCO)C3=O)N1CC1NC12` (stereo not drawn) [Compound 25]: the “Experimenter value of Active Concentration (log1/C) Against Human Tumor” value was 8.31.

In the case of `COC12C(COC(N)=O)C3=C(C(=O)C(C)=C(Nc4ccccc4)C3=O)N1CC1NC12` (stereo not drawn) [Compound 7], the “Experimenter value of Active Concentration (log1/C) Against Human Tumor” value is 8.78. Take `COC12C(COC(N)=O)C3=C(C(=O)C(C)=C(Nc4cccc(I)c4)C3=O)N1CC1NC12` (stereo not drawn) [Compound 11]: the “Experimenter value of Active Concentration (log1/C) Against Human Tumor” value is listed as 8.9.

Take `CO[C@@]12[C@H](COC(N)=O)C3=C(C(=O)C(C)=C(OCCOCCO)C3=O)N1C[C@@H]1N[C@@H]12` [Compound 27]: the “Experimenter value of Active Concentration (log1/C) Against Human Tumor” value is 7.32. Take `CO[C@@]12[C@H](COC(N)=O)C3=C(C(=O)C(C)=C(NCCc4ccccn4)C3=O)N1C[C@@H]1N[C@@H]12` [Compound 6]: the “Experimenter value of Active Concentration (log1/C) Against Human Tumor” value is 7.38.

For `COC12C(COC(N)=O)C3=C(C(=O)C(C)=C(Nc4nc(C)cs4)C3=O)N1CC1NC12` (stereo not drawn) [Compound 18], the “Experimenter value of Active Concentration (log1/C) Against Human Tumor” value is 8.69.

As for `COC12C(COC(N)=O)C3=C(C(=O)C(C)=C(Nc4cc[nH]n4)C3=O)N1CC1NC12` (stereo not drawn) [Compound 19], the “Experimenter value of Active Concentration (log1/C) Against Human Tumor” value is 7.38.

As for `CO[C@@]12[C@H](COC(N)=O)C3=C(C(=O)C(C)=C(N)C3=O)N1C[C@@H]1N[C@@H]12` [Compound 1], the “Experimenter value of Active Concentration (log1/C) Against Human Tumor” value is listed as 7.7. For `CO[C@@]12[C@H](COC(N)=O)C3=C(C(=O)C(C)=C(Nc4ccc5[nH]ccc5c4)C3=O)N1C[C@@H]1N[C@@H]12` [Compound 17], the “Experimenter value of Active Concentration (log1/C) Against Human Tumor” value was 8.75. As for `COC12C(COC(N)=O)C3=C(C(=O)C(C)=C(Nc4ccc(Br)cc4)C3=O)N1CC1NC12` (stereo not drawn) [Compound 10], the “Experimenter value of Active Concentration (log1/C) Against Human Tumor” value is 8.72. As to `COC12C(COC(N)=O)C3=C(C(=O)C(C)=C(OC4CC4)C3=O)N1CC1NC12` (stereo not drawn) [Compound 21], the “Experimenter value of Active Concentration (log1/C) Against Human Tumor” value was 9.2. Regarding `COC12C(COC(N)=O)C3=C(C(=O)C(C)=C(OCc4ccccc4)C3=O)N1CC1NC12` (stereo not drawn) [Compound 24], the “Experimenter value of Active Concentration (log1/C) Against Human Tumor” value was 9.21. As to `COC12C(COC(N)=O)C3=C(C(=O)C(C)=C(Nc4ccc(O)c(I)c4)C3=O)N1CC1NC12` (stereo not drawn) [Compound 15], the “Experimenter value of Active Concentration (log1/C) Against Human Tumor” value is 7.76. On to `C#CCNC1=C(C)C(=O)C2=C(C1=O)C(COC(N)=O)C1(OC)C3NC3CN21` (stereo not drawn) [Compound 3], for which the “Experimenter value of Active Concentration (log1/C) Against Human Tumor” value is reported as 8.46. On to `COC12C(COC(N)=O)C3=C(C(=O)C(C)=C(OCCOc4ccccc4)C3=O)N1CC1NC12` (stereo not drawn) [Compound 26], for which the “Experimenter value of Active Concentration (log1/C) Against Human Tumor” value is reported as 9.48. `COC12C(COC(N)=O)C3=C(C(=O)C(C)=C(Nc4ccc(O)c([N+](=O)[O-])c4)C3=O)N1CC1NC12` (stereo not drawn) [Compound 16]: the “Experimenter value of Active Concentration (log1/C) Against Human Tumor” value is reported as 7.71.

For `COC12C(COC(N)=O)C3=C(C(=O)C(C)=C(Nc4ccc(O)cc4)C3=O)N1CC1NC12` (stereo not drawn) [Compound 13], the “Experimenter value of Active Concentration (log1/C) Against Human Tumor” value is 7.88. `COC12C(COC(N)=O)C3=C(C(=O)C(C)=C(Nc4ccc(I)cc4)C3=O)N1CC1NC12` (stereo not drawn) [Compound 12]: the “Experimenter value of Active Concentration (log1/C) Against Human Tumor” value is 8.77. `COC12C(COC(N)=O)C3=C(C(=O)C(C)=C(Nc4ccc(N)cc4)C3=O)N1CC1NC12` (stereo not drawn) [Compound 8]: the “Experimenter value of Active Concentration (log1/C) Against Human Tumor” value was 7.83. With `CO[C@@]12[C@H](COC(N)=O)C3=C(C(=O)C(C)=C(Nc4ccc([N+](=O)[O-])cc4)C3=O)N1C[C@@H]1N[C@@H]12` [Compound 14], the “Experimenter value of Active Concentration (log1/C) Against Human Tumor” value was 9.07. As for `COC1=C(C)C(=O)C2=C(C1=O)[C@@H](COC(N)=O)[C@@]1(OC)[C@H]3N[C@H]3CN21` [Compound 20], the “Experimenter value of Active Concentration (log1/C) Against Human Tumor” value is on record as 9.52. For the compound `COC12C(COC(N)=O)C3=C(C(=O)C(C)=C(OCC4CCC4)C3=O)N1CC1NC12` (stereo not drawn) [Compound 23], the “Experimenter value of Active Concentration (log1/C) Against Human Tumor” value is recorded as 9.66.

Regarding `COCCOCCOC1=C(C)C(=O)C2=C(C1=O)[C@@H](COC(N)=O)[C@@]1(OC)[C@H]3N[C@H]3CN21` [Compound 28], the “Experimenter value of Active Concentration (log1/C) Against Human Tumor” value is 8.24. Regarding `CO[C@@]12[C@H](COC(N)=O)C3=C(C(=O)C(C)=C(OCC4CC4)C3=O)N1C[C@@H]1N[C@@H]12` [Compound 22], the “Experimenter value of Active Concentration (log1/C) Against Human Tumor” value is given as 9.43.

Test system in a further data set: not given
The settings on record: organic amines, 25C, I = 0; cited from earlier work.
For the compound `CC1=CCCCC1N` (stereo not drawn) [Compound 96], the pK exper is 10.37. `NC1C=CCCC1` (stereo not drawn) [Compound 95]: the pK exper is listed as 10.42.

Test system in the next data set: not given
Conditions: experimental logP used as measured property in R matrix; cited from earlier work.
As for `COC12C(COC(N)=O)C3=C(C(=O)C(C)=C(OCCO)C3=O)N1CC1NC12` (stereo not drawn) [Compound 25], the logP is given as −1.1. As for `COC12C(COC(N)=O)C3=C(C(=O)C(C)=C(Nc4ccccc4)C3=O)N1CC1NC12` (stereo not drawn) [Compound 7], the logP is listed as 1.3.

As to `COC12C(COC(N)=O)C3=C(C(=O)C(C)=C(Nc4cccc(I)c4)C3=O)N1CC1NC12` (stereo not drawn) [Compound 11], the logP is reported as 2.42.

For `CO[C@@]12[C@H](COC(N)=O)C3=C(C(=O)C(C)=C(OCCOCCO)C3=O)N1C[C@@H]1N[C@@H]12` [Compound 27], the logP is reported as −1.08.

On to `CO[C@@]12[C@H](COC(N)=O)C3=C(C(=O)C(C)=C(NCCc4ccccn4)C3=O)N1C[C@@H]1N[C@@H]12` [Compound 6], for which the logP is given as 1.23. As to `COC12C(COC(N)=O)C3=C(C(=O)C(C)=C(Nc4nc(C)cs4)C3=O)N1CC1NC12` (stereo not drawn) [Compound 18], the logP is given as 1.52. On to `COC12C(COC(N)=O)C3=C(C(=O)C(C)=C(Nc4cc[nH]n4)C3=O)N1CC1NC12` (stereo not drawn) [Compound 19], for which the logP is reported as 0.56. Take `CO[C@@]12[C@H](COC(N)=O)C3=C(C(=O)C(C)=C(Nc4ccc5[nH]ccc5c4)C3=O)N1C[C@@H]1N[C@@H]12` [Compound 17]: the logP is listed as 2.45. As to `COC12C(COC(N)=O)C3=C(C(=O)C(C)=C(Nc4ccc(Br)cc4)C3=O)N1CC1NC12` (stereo not drawn) [Compound 10], the logP is on record as 2.16. Take `COC12C(COC(N)=O)C3=C(C(=O)C(C)=C(OC4CC4)C3=O)N1CC1NC12` (stereo not drawn) [Compound 21]: the logP was 0.83. `COC12C(COC(N)=O)C3=C(C(=O)C(C)=C(OCc4ccccc4)C3=O)N1CC1NC12` (stereo not drawn) [Compound 24]: the logP is listed as 1.94. In the case of `COC12C(COC(N)=O)C3=C(C(=O)C(C)=C(Nc4ccc(O)c(I)c4)C3=O)N1CC1NC12` (stereo not drawn) [Compound 15], the logP is 1.75. As to `C#CCNC1=C(C)C(=O)C2=C(C1=O)C(COC(N)=O)C1(OC)C3NC3CN21` (stereo not drawn) [Compound 3], the logP is given as 0.24. Regarding `COC12C(COC(N)=O)C3=C(C(=O)C(C)=C(OCCOc4ccccc4)C3=O)N1CC1NC12` (stereo not drawn) [Compound 26], the logP is reported as 1.74. Take `COC12C(COC(N)=O)C3=C(C(=O)C(C)=C(Nc4ccc(O)c([N+](=O)[O-])c4)C3=O)N1CC1NC12` (stereo not drawn) [Compound 16]: the log partition coefficient (logP) is given as 0.51. In the case of `COC12C(COC(N)=O)C3=C(C(=O)C(C)=C(Nc4ccc(O)cc4)C3=O)N1CC1NC12` (stereo not drawn) [Compound 13], the logP was 0.63. With `COC12C(COC(N)=O)C3=C(C(=O)C(C)=C(Nc4ccc(I)cc4)C3=O)N1CC1NC12` (stereo not drawn) [Compound 12], the logP is reported as 2.42. For `COC12C(COC(N)=O)C3=C(C(=O)C(C)=C(Nc4ccc(N)cc4)C3=O)N1CC1NC12` (stereo not drawn) [Compound 8], the logP is listed as 0.07.

For the compound `CO[C@@]12[C@H](COC(N)=O)C3=C(C(=O)C(C)=C(Nc4ccc([N+](=O)[O-])cc4)C3=O)N1C[C@@H]1N[C@@H]12` [Compound 14], the logP was 1.02. As to `COC1=C(C)C(=O)C2=C(C1=O)[C@@H](COC(N)=O)[C@@]1(OC)[C@H]3N[C@H]3CN21` [Compound 20], the logP is 0.26.

As to `COC12C(COC(N)=O)C3=C(C(=O)C(C)=C(OCC4CCC4)C3=O)N1CC1NC12` (stereo not drawn) [Compound 23], the logP was 2.47. Take `COCCOCCOC1=C(C)C(=O)C2=C(C1=O)[C@@H](COC(N)=O)[C@@]1(OC)[C@H]3N[C@H]3CN21` [Compound 28]: the logP is listed as −0.46.
